{
  "source": "patent US20210292710A1",
  "about": "“METHOD FOR ENHANCING IMMUNE FUNCTION OF IMMUNE CELL AND IMMUNE CELL LINE PRODUCED USING THE SAME” (INDUSTRY-ACADEMIC COOPERATION FOUNDATION, YONSEI UNIVERSITY, priority 2020, published 2021)",
  "key": {"[1]": {"system": "enzymes involved in glycolysis of T cells", "assay": "mRNA expression of enzymes involved in T cell glycolysis", "type": "cell-based, mouse", "settings": "CD3+ T cells activated 72 hours with anti-CD3 and anti-CD28 beads", "description": "Thus, referring to FIG. 4B, the results of mRNA expression of enzymes involved in glycolysis of T cells due to PI3K inhibitor treatment are shown. In this connection, in order to identify enzymes involved in glycolysis of T cells due to PI3K inhibitor treatment, the CD3+ T cells obtained in FIG. 2 are used. Furthermore, the obtained CD3+ T cell is activated for 72 hours using anti-CD3 and anti-CD28 beads to identify mRNA expression of enzymes involved in glycolysis. In this connection, CD3 secretes cytokine as a protein immunomodulator, and CD28 inhibits apoptosis. Only CD3-activated T cells may lead to apoptosis. Therefore, both CD3 and CD28 signals are used to increase T cell function and survival."}, "[2]": {"system": "lung-cancer cell line KLN205", "assay": "Percentage of immune cells relative to lung-cancer cell line KLN205", "type": "in vivo", "source_text": "Referring to FIG. 10B, the percentage of immune cells relative to the lung-cancer cell line KLN205 due to PI3K inhibitor treatment is shown. Referring first to FIG. 10B (a), the percentage of CD3+ CD8+ T cells relative to the lung-cancer cell line KLN205 due to PI3K inhibitor treatment is shown. Next, referring to (b) of FIG. 10B, the percentage of CD3+ CD4+ CD25+ Foxp3 T cells relative to lung-cancer cell line KLN205 due to PI3K inhibitor treatment is shown. Next, referring to (c) of FIG. 10B, the percentage of CD3+ TIL cells relative to the lung-cancer cell line KLN205 due to PI3K inhibitor treatment is shown. Next, referring to (d) of FIG. 10B, the percentage of MDSC cells relative to lung-cancer cell line KLN205 due to PI3K inhibitor treatment is shown."}, "AKT": {"system": "AKT", "assay": "AKT expression in T cells due to PI3K inhibitor and mTORC1 inhibitor treatment", "type": "cell-based", "settings": "RAD001 as mTORC1 inhibitor, p<0.05", "source_text": "Furthermore, referring to FIG. 8, AKT and GLUT1 expression levels in T cells due to PI3K inhibitor and mTORC1 inhibitor treatment are shown. In this connection, RAD001 is used as a mTORC1 inhibitor. First, referring to (a) of FIG. 8, AKT expression levels in T cells due to PI3K inhibitor and mTORC1 inhibitor treatment are shown. […] This may mean that when mTORC1 is inhibited, AKT expression is reduced, and thus mTORC1 is an important signal capable of rebounding AKT expression."}, "GLUT1": {"system": "GLUT1", "assay": "GLUT1 expression in T cells due to PI3K inhibitor and AKT inhibitor treatment", "type": "cell-based", "settings": "both helper and cytotoxic T cells; p<0.05", "source_text": "Furthermore, referring to FIG. 7, the GLUT1 expression level in the T cells due to PI3K inhibitor and AKT inhibitor treatment is shown."}, "[3]": {"system": "lung-cancer cell line KLN205", "assay": "Anti-cancer effect (tumor size) in lung-cancer cell line KLN205", "type": "in vivo", "description": "Referring to FIG. 10A, the results of the anti-cancer effect against the lung-cancer cell line KLN205 due to the PI3K inhibitor treatment are shown. When the cell is treated with the vehicle as a control, the tumor size rapidly increases as the treatment days increase, and then the tumor size on the 15th day is 400 to 500 mm^3. However, when the cell is treated with the PI3K inhibitor, the tumor size is reduced compared to the control. More specifically, when the cell is treated with the PI3K inhibitor BKM 120 at 35 mpk, the tumor size on the 15th day is 200 to 250 mm^3. When the cell is treated with BKM 120 at 50 mpk, the tumor size on day 15 is found to be 90 to 100 mm^3."}, "pAKT (phosphoAKT)": {"system": "pAKT (phosphoAKT)", "assay": "pAKT expression in CD4 and CD8 T cells by flow cytometry (MFI)", "type": "cell-based, mouse", "settings": "for AKT expression relative to control: after 48 hours", "description": "First, referring to FIG. 6, an expression level of pAKT (phosphoAKT) in an active state in the T cell due to PI3K inhibitor treatment is shown. In this connection, in order to identify AKT activation of T cells due to PI3K inhibitor treatment, the CD3+ T cells obtained in FIG. 2 are used. Furthermore, the obtained CD3+ T cells are co-cultured for 48 hours together with CD11c positive dendritic cells, anti-CD3 and anti-CD28. The pAKT expression is measured via flow cytometry in 6 and 48 hours after the co-culture has started. Furthermore, expression of pAKT is indicated as mean fluorescence intensity (MFI). Furthermore, CD4 and CD8 positive cells are used as T cells to measure expression of pAKT. In this connection, CD4 and CD8 are present in the cell membrane of the T cell and are cell-binding proteins that bind to non-polymorphic regions of class II MHC and class I MHC, respectively. CD4 may be a helper T cell as a T cell lineage marker. CD8 may refer to a cytotoxic T cell."}},
  "data": [
    {"smiles": "Nc1cc(C(F)(F)F)c(-c2cc(N3CCOCC3)nc(N3CCOCC3)n2)cn1", "note": "[BKM 120, buparlisib]", "values": [
      {"measurement": "mRNA expression of each glycolysis enzyme versus spleen T cells and CD3+CD28-stimulated T cells", "setting": "[1]", "result": "higher"},
      {"measurement": "average percentage of CD3+ CD4+ CD25+ Foxp3 T cells", "setting": "[2]; 35 mpk", "result": 17, "unit": "%"},
      {"measurement": "average percentage of CD3+ CD8+ T cells", "setting": "[2]; 35 mpk", "result": 39, "unit": "%"},
      {"measurement": "average percentage of MDSC cells", "setting": "[2]; 35 mpk", "result": 24, "unit": "%"},
      {"measurement": "distribution of the percentage of CD3+ CD4+ CD25+ Foxp3 T cells", "setting": "[2]; 35 mpk", "result": "13 to 24", "unit": "%"},
      {"measurement": "distribution of the percentage of CD3+ CD8+ T cells", "setting": "[2]; 35 mpk", "result": "35 to 49", "unit": "%"},
      {"measurement": "distribution of the percentage of MDSC cells", "setting": "[2]; 35 mpk", "result": "23 to 25", "unit": "%"},
      {"measurement": "percentage of CD3+ TIL cells on average", "setting": "[2]; 35 mpk", "result": 5, "unit": "%"},
      {"measurement": "average percentage of CD3+ CD4+ CD25+ Foxp3 T cells", "setting": "[2]; 50 mpk", "result": 15, "unit": "%"},
      {"measurement": "average percentage of CD3+ CD8+ T cells", "setting": "[2]; 50 mpk", "result": 41, "unit": "%"},
      {"measurement": "average percentage of MDSC cells", "setting": "[2]; 50 mpk", "result": 18, "unit": "%"},
      {"measurement": "distribution of the percentage of CD3+ CD4+ CD25+ Foxp3 T cells", "setting": "[2]; 50 mpk", "result": "12 to 17", "unit": "%"},
      {"measurement": "distribution of the percentage of CD3+ CD8+ T cells", "setting": "[2]; 50 mpk", "result": "32 to 50", "unit": "%"},
      {"measurement": "distribution of the percentage of MDSC cells", "setting": "[2]; 50 mpk", "result": "17 to 19", "unit": "%"},
      {"measurement": "percentage of CD3+ TIL cells on average", "setting": "[2]; 50 mpk", "result": 6, "unit": "%"},
      {"measurement": "AKT expression in iPI3K+/imTOR− group relative to iPI3K−/imTOR−, iPI3K−/imTOR+ and iPI3K+/imTOR+ groups", "setting": "AKT", "result": "1.5 to 2.3", "unit": "times"},
      {"measurement": "GLUT1 expression in iPI3K+/iAKT− group relative to iPI3K−/iAKT−, iPI3K−/iAKT+ and iPI3K+/iAKT+ groups", "setting": "GLUT1", "result": "2 to 3", "unit": "times"},
      {"measurement": "tumor size", "setting": "[3]; 35 mpk, 15th day", "result": "200 to 250", "unit": "mm^3"},
      {"measurement": "tumor size", "setting": "[3]; 50 mpk, day 15", "result": "90 to 100", "unit": "mm^3"},
      {"measurement": "AKT expression level relative to the AKT expression level at the start of culture", "setting": "pAKT (phosphoAKT); 48 hours after the start of culture", "result": "≥ 3", "unit": "times"},
      {"measurement": "AKT expression versus control", "setting": "pAKT (phosphoAKT); cytotoxic T cells (CD8), 0 to 25 hours", "result": "lower AKT expression than that of the control"},
      {"measurement": "AKT expression versus control", "setting": "pAKT (phosphoAKT); cytotoxic T cells (CD8), after 25 hours", "result": "higher AKT expression than that of the control"},
      {"measurement": "AKT expression relative to control", "setting": "pAKT (phosphoAKT); cytotoxic T cells (CD8)", "result": "1.3 to 1.7", "unit": "times"},
      {"measurement": "AKT expression versus control", "setting": "pAKT (phosphoAKT); helper T cell (CD4), 0 to 20 hours", "result": "lower AKT expression than that of the control"},
      {"measurement": "AKT expression versus control", "setting": "pAKT (phosphoAKT); helper T cell (CD4), after 20 hours", "result": "higher AKT expression than that of the control"},
      {"measurement": "AKT expression relative to control", "setting": "pAKT (phosphoAKT); helper T cell (CD4)", "result": "1.5 to 2", "unit": "times"},
      {"measurement": "time after the start of the culture at which the AKT level is increased again to the level before the PI3K treatment", "setting": "pAKT (phosphoAKT); immune cells cultured after PI3K inhibitor treatment", "result": 20, "unit": "h"}
    ]}
  ]
}
